# Marks after values point to notes of the source that are not given here.
# Experiments:
# MA-treated mice [1] = experiment: MA model, HM versus L-dopa/carbidopa: hyperthermia; assay type: in vivo; conditions: MA 7.5 mg/kg i.p. x 4
# Description: FIGS. 31A-31B show effect of drugs on the MA-induced hyperthermia. Mice received MA injections as 2 hrs' time interval under the ambient temperature of 22.0±0.5° C.
# Experimental paradigm for MA with or without compounds is in FIG. 30. Treatment with MA (7.5 mg/kg, i.p.×four times as two hour time interval) produces hyperthermia (P<0.01).
# LPS-treated mice [2] = experiment: LPS model, HM versus L-dopa/carbidopa: nigral TH-IR; conditions: mouse, in vivo
# Text: FIG. 27 show effects of carbidopa, L-dopa, carbidopa+L-dopa and HM on the nigral tyrosine hydroxylase-like immunoreactivity (TH-IR) of the mice treated with LPS.
# LPS-treated mice [3] = experiment: LPS model, HM versus L-dopa/carbidopa: microglia F4/80-like immunoreactivity; assay type: in vivo; conditions: substantia nigra
# LPS-treated mice [4] = experiment: LPS model, HM versus L-dopa/carbidopa: mortality; assay type: in vivo; conditions: intrastriatal LPS 2 μg x 4/head; 2 weeks
# Description: Mortality was observed by 2 weeks after LPS injection. *P<0.01 vs. Saline+LPS (x^2-test).
# The neuroprotective effect of HM was compared with L-dopa, carbidopa, or carbidopa plus L-dopa in response to dopaminergic damage induced by LPS. Intrastriatal injection of LPS (2 μg×4/head) produced high mortality (ten animals died out of twelve animals in the 2 weeks after LPS administration).
# MPTP-treated mice [5] = experiment: MPTP model, HM versus L-dopa/carbidopa: locomotor activity; assay type: in vivo; conditions: HM 24 mg/kg i.p., L-dopa 200 mg/kg p.o., carbidopa 20 mg/kg p.o., 2 weeks before MPTP
# Description: FIGS. 20A-20B show effects of carbidopa, L-dopa, carbidopa+L-dopa and HM on the changes in locomotor activity (A) and locomotor pattern (B) induced by MPTP in mice.
# A prescription drug for treating Parkinsonian patients is L-dopa or carbidopa plus L-dopa. Thus, the neuroprotective effects of HM was compared with L-dopa, carbidopa, or carbidopa plus L-dopa. […] Locomotor activity was examined for 60 min after final treatment of MPTP. Mice were sacrificed at 24 h after final MPTP administration. HM (24 mg/kg, i.p.), L-dopa (200 mg/kg, p.o.) with or without carbidopa (20 mg/kg, p.o.) was administered for 2 weeks before first MPTP challenge.
# MPTP-treated mice [6] = experiment: Nigral tyrosine hydroxylase-like immunoreactivity in MPTP-treated mice; conditions: 24 mg/kg i.p.
# Description: (§2) Each morphinan was administered 30 min prior to every injection of MPTP for last three days (from day 4th to day 7th). Animals were sacrificed 24 h after the last MPTP treatment.
# C57 BL/6 mice [7] = experiment: Conditioned place preference (psychological dependence) following repeated administration of morphinans or PCP; assay type: in vivo; conditions: 20 or 40 mg/kg i.p. (PCP 2.5 or 5 mg/kg); vs saline
# Description: On day 14, the guillotine doors were raised. […] Data were analyzed between 0900 and 1700 hr.
# MPTP-treated mice [8] = experiment: Striatal dopamine and metabolites (HPLC-EC) in MPTP-treated mice; conditions: for Concentration DA in the striatum: mean ± S.E.M., 8 animals
# Description: as §2
# Brains were rapidly removed and cut into 1 mm coronal sections on ice. The striatum was punched using a fine pasteur pipette (3, 21, 22), and stored at −70° C. DA and its metabolites, 3,4-dihydroxyphenylacetic acid (DOPAC) and homovanilic acid (HVA) were measured by HPLC-eletrochemical detection (3, 21, 22). Briefly, the striatum was homogenized in 0.2 M perchloric acid containing 3,4-dihydroxybenzylamine as an internal standard (10 mg wet weight of tissue per ml). The homogenate was centrifuged and a 20-μl aliquot of the supernatant was injected into the HPLC equipped with an ODS-C18 column. The mobile phase was comprised of 26 ml of acetonitrile, 21 ml of tetrahydrofuran and 960 ml of 0.15 M monochloroacetic acid (pH 3.0) containing 50 mg/l of EDTA and 200 mg/l of sodium octyl sulfate. The amount of DA, DOPAC and HVA were determined by comparison of peak height ratio of tissue sample with standards, and were expressed in nanograms per 100 mg of wet weight of tissue.
# Each morphinan was administered 30 min before every injection of MPTP for last three days. Animals were sacrificed at 24 h after the last MPTP injection.
# MA-treated mice [9] = experiment: Striatal dopamine and metabolites in MA-treated mice; assay type: in vivo; conditions: for Concentration DA in the striatum: 3 days after final MA
# Text: Mice were sacrificed at 3 days after final MA injection.
# MA-treated mice [10] = experiment: Methamphetamine (MA)-induced hyperthermia; assay type: in vivo; conditions: 24 mg/kg; MA 7.5 mg/kg i.p. x 4 at 2-h intervals
# Description: Rectal temperature was recorded at 40 min after each MA treatment. […] Mice were sacrificed at 3 days after final MA injection.
# FIGS. 10A-10B show effect of morphinans on the methamphetamine (MA)-induced hyperthermia. Mice received i.p. injections of MA (four injections of 7.5 mg/kg each) at 2-h intervals under the ambient temperature of 22.0±0.5° C. Temperatures were recorded at 40 min after each MA treatment (Arrow=MA injection).
# MA-treated mice [11] = experiment: MA-induced behavioural sensitization; conditions: morphinan 20 mg/kg i.p., last 3 days of wash-out (Ex. 3.12)
# Description: Morphinans (20 mg/kg, i.p.) were administered last 3 days of wash-out period.
# MA-treated mice [12] = experiment: MA-induced hyperlocomotion; assay type: in vivo; conditions: morphinan 20 mg/kg i.p. 30 min before MA 1 mg/kg i.p./day x 7
# Description: FIGS. 39A-39D show effect of morphinans on the MA-induced hyperactivity in the mice. Each morphinan (20 mg/kg, i.p.) was administered 30 minutes prior to MA (1 mg/kg, i.p.). All treatments were performed for 7 days.
# cocaine-treated mice [13] = experiment: Cocaine-induced Fos-related antigen-immunoreactivity (FRA-IR) in the striatum; conditions: cocaine 5 mg/kg; morphinan 20 mg/kg i.p.
# MA-treated mice [14] = experiment: Hypokinesia induced by MA; assay type: in vivo; conditions: 12 and 24 mg/kg; 3 days after final MA
# cocaine-treated mice [15] = experiment: Cocaine-induced hyperlocomotion; assay type: in vivo
# Description: FIGS. 34A-34B show effect of morphinans on the cocaine-induced hyperactivity in the mice. Morphinans (15 and 30 mg/kg, i.p.) were administered 30 minutes prior to cocaine (5 and 20 mg/kg, i.p.). Central activity means relatively non-specific locomotor activity in the center of the box. Marginal activity means circling behaviors. All treatments were performed for 7 days.
# FIGS. 35A-35D show effect of dimemorfan (DF) on cocaine-induced hyperactivity in the mice. DF (20 mg/kg, i.p.) was administered 30 minutes prior to cocaine (5 and 20 mg/kg, i.p.). All treatments were performed for 7 days.
# LPS-treated mice [16] = experiment: Hypokinesia induced by intrastriatal LPS; conditions: 12 or 24 mg/kg, twice before bilateral intrastriatal LPS
# C57 BL/6 mice [17] = experiment: Locomotor activity and locomotor pattern following repeated administration of morphinans or PCP; assay type: in vivo
# MA-treated mice [18] = experiment: Nigral TH-IR in MA-treated mice; conditions: 24 mg/kg i.p.
# LPS-treated mice [19] = experiment: Striatal dopamine and metabolites in LPS-treated mice; assay type: in vivo; conditions: for Concentration DA in the striatum: 3 weeks after LPS
# Text: (§1) Control animals received striatal injection with PBS.
# Mice were sacrificed at 3 weeks after LPS treatment.
# [20] = system: NMDA receptor associated PCP sites; conditions: cited from earlier work
# [21] = system: kainate or maximal electric shock; conditions: kainate (24) or maximal electric shock (27); cited from earlier work
# MA-treated mice [22] = experiment: MA-induced FRA-IR in the striatum; conditions: morphinan 20 mg/kg i.p.; MA 1 mg/kg i.p./day x 7
# Description: Therefore, brains were removed and used for immunocytochemical analysis at 18 h after the final cocaine/MA treatment. The coronal sections containing striatum were processed for FRA immunocytochemistry. […] The FRA antibody was used at 1:2,000 as the optimal dilution. The FRA-IR in the striatum was calculated using image analysis systems with a polaroid digital microscopic camera (Optimas version 6.2).
# σ1 receptors = σ1 receptors (Homo sapiens, UniProt Q99720); conditions: cited from earlier work
# Chain of σ1 receptors (Q99720 whole entry): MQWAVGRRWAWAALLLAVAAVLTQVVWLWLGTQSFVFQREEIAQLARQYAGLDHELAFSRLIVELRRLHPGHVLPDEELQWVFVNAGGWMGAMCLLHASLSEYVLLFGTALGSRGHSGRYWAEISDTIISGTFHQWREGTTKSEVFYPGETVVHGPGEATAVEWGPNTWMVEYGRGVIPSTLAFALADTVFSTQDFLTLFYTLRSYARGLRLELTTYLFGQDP
# MPTP-treated mice [23] = experiment: Hypokinesia (reduction in locomotor activity) induced by MPTP; assay type: in vivo; conditions: 12 or 24 mg/kg i.p. 30 min before MPTP (20 mg/kg/day x 7), last three days
# LPS-treated mice [24] = experiment: Nigral TH-IR in LPS-treated mice; assay type: in vivo; conditions: 24 mg/kg i.p.
# Text: FIGS. 8A-8B. […] Magnification=40×.
# as §1
smiles,measurement,setting,value
C[C@@](Cc1ccc(O)c(O)c1)(NN)C(=O)O [carbidopa],effect on MA-induced hyperthermia,MA-treated mice [1],significantly attenenuated
same,effect on LPS-induced loss in nigral TH-IR,LPS-treated mice [2],significantly attenuated
same,effect on LPS-induced increase in F4/80-like immunoreactivity (microglia),LPS-treated mice [3],significantly attenuated
same,effect on mortality induced by LPS,LPS-treated mice [4],appears to attenuate mortality induced by LPS
same,effect on MPTP-induced decrease in locomotor activity,MPTP-treated mice [5],appeared to increase
"CN1CC[C@]23CCCC[C@H]2[C@H]1Cc1ccc(OCC2CC2)cc13 [CM, 3-cyclopropylmethoxy-17-methylmorphinan]",effect on MPTP-induced decrease in nigral TH-positive cells,MPTP-treated mice [6],significantly attenuated the decrease in TH-positive cells
same,conditioned place preference (CPP),C57 BL/6 mice [7],almost no CPP effects
same,"effect on MPTP-induced reductions in striatal DA, DOPAC and HVA",MPTP-treated mice [8]; 24 mg/kg pretreatment,significantly protected
same,Concentration DOPAC in the striatum,MPTP-treated mice [8]; morphinan 12 (mg/kg) + MPTP,58 ± 6 ng/100 mg wet tissue
same,Concentration HVA in the striatum,MPTP-treated mice [8]; morphinan 12 (mg/kg) + MPTP,68 ± 9 ng/100 mg wet tissue
same,Concentration DA in the striatum,MPTP-treated mice [8]; morphinan 12 (mg/kg) + MPTP,489 ± 69 ng/100 mg wet tissue
same,Concentration DOPAC in the striatum,MPTP-treated mice [8]; morphinan 24 (mg/kg) + MPTP,78 ± 10^b ng/100 mg wet tissue
same,Concentration HVA in the striatum,MPTP-treated mice [8]; morphinan 24 (mg/kg) + MPTP,89 ± 7^b ng/100 mg wet tissue
same,Concentration DA in the striatum,MPTP-treated mice [8]; morphinan 24 (mg/kg) + MPTP,587 ± 76^b ng/100 mg wet tissue
same,"effect on MA-induced reductions in striatal DA, DOPAC and HVA",MA-treated mice [9]; 24 mg/kg pretreatment,significantly protected
same,Concentration DOPAC in the striatum,MA-treated mice [9]; morphinan 12 (mg/kg) + MA,82 ± 10 ng/100 mg wet tissue
same,Concentration HVA in the striatum,MA-treated mice [9]; morphinan 12 (mg/kg) + MA,83 ± 9 ng/100 mg wet tissue
same,Concentration DA in the striatum,"MA-treated mice [9]; morphinan 12 (mg/kg) + MA, mean ± S.E.M., 8 animals",668 ± 81 ng/100 mg wet tissue
same,Concentration DOPAC in the striatum,MA-treated mice [9]; morphinan 24 (mg/kg) + MA,99 ± 10^b ng/100 mg wet tissue
same,Concentration HVA in the striatum,MA-treated mice [9]; morphinan 24 (mg/kg) + MA,94 ± 12^b ng/100 mg wet tissue
same,Concentration DA in the striatum,MA-treated mice [9]; morphinan 24 (mg/kg) + MA,777 ± 66^c ng/100 mg wet tissue
same,effect on MA-induced hyperthermia (rectal temperature),MA-treated mice [10],attenuated by all morphinans used in this study
same,effect on MA-induced behavioural sensitization,MA-treated mice [11],significantly reduced
same,effect on MA-induced hyperlocomotion,MA-treated mice [12],consistently effective in attenuating hyperlocomotion induced by MA
same,effect on cocaine-induced FRA-IR in the striatum,cocaine-treated mice [13],apparently attenuated
same,effect on MA-induced reduction in locomotor activity,MA-treated mice [14],significantly prevented MA-induced reduction in locomotor activity
same,effect on locomotor activity induced by low dose of cocaine,"cocaine-treated mice [15]; cocaine 5 mg/kg i.p. x 7 days, morphinan 15 or 30 mg/kg (DF 20 mg/kg) i.p.",consistently attenuated locomotor activity induced by a low dose of cocaine
same,effect on hyperactivity induced by high dose of cocaine,"cocaine-treated mice [15]; cocaine 20 mg/kg i.p. x 7 days, morphinan 15 or 30 mg/kg i.p. 30 min before",not uniform
same,effect on LPS-induced decrease in locomotor activity,LPS-treated mice [16],significantly prevented LPS-induced decrease in locomotor activity
same,locomotor pattern (tracings),"C57 BL/6 mice [17]; 40 mg/kg i.p. (PCP 5 mg/kg), FIG. 3",did not produce significant marginal activity
same,marginal activity (circling behaviour; absolute turn angular),"C57 BL/6 mice [17]; 20 or 40 mg/kg i.p./day x 7 (PCP 2.5 or 5 mg/kg), 3-min period, vs saline",did not significantly affect marginal activity
same,locomotor activity (total distance moved),"C57 BL/6 mice [17]; 20 or 40 mg/kg i.p./day x 7 days, 30 min after final treatment, vs saline",comparable to that with saline
same,effect on MA-induced decrease in nigral TH-positive cells,MA-treated mice [18],significantly attenuated the decrease in TH-positive cells
same,"effect on LPS-induced reductions in striatal DA, DOPAC and HVA",LPS-treated mice [19]; 24 mg/kg pretreatment,significantly protected
same,Concentration DOPAC in the striatum,LPS-treated mice [19]; morphinan 12 (mg/kg) + LPS,70 ± 7 ng/100 mg wet tissue
same,Concentration HVA in the striatum,LPS-treated mice [19]; morphinan 12 (mg/kg) + LPS,83 ± 6 ng/100 mg wet tissue
same,Concentration DA in the striatum,"LPS-treated mice [19]; morphinan 12 (mg/kg) + LPS, mean ± S.E.M., 8 animals",482 ± 54 ng/100 mg wet tissue
same,Concentration DOPAC in the striatum,LPS-treated mice [19]; morphinan 24 (mg/kg) + LPS,86 ± 9^c ng/100 mg wet tissue
same,Concentration HVA in the striatum,LPS-treated mice [19]; morphinan 24 (mg/kg) + LPS,89 ± 7^c ng/100 mg wet tissue
same,Concentration DA in the striatum,LPS-treated mice [19]; morphinan 24 (mg/kg) + LPS,684 ± 56^c ng/100 mg wet tissue
same,affinity for NMDA receptor associated PCP sites,[20],very low affinities
same,anticonvulsant effect,[21],exhibited anticonvulsant effects
same,effect on MA-induced FRA-IR in the striatum,MA-treated mice [22],apparently attenuated
same,affinity for σ1 receptors,σ1 receptors,high affinity ligands
same,effect on MPTP-induced reduction in locomotor activity,MPTP-treated mice [23],significantly prevented MPTP-induced reduction in locomotor activity
same,effect on LPS-induced reduction in nigral TH-positive cells,LPS-treated mice [24],significantly attenuated the reduction in TH-positive cells

# — patent publication US7691874B2, “Neuroprotective properties of dextrorotatory morphinans” (priority 2004, dated 2010)
